Data on two compounds can be found in publication PMC6010071, “Blocking oestradiol synthesis pathways with potent and selective coumarin derivatives” (Journal of Enzyme Inhibition and Medicinal Chemistry, 2018).

Holding throughout (format): biochemical
One test deals with T1, recombinant human HSD1 (Homo sapiens, UniProt P14061).
T1 construct: made in house; host or cells: Sf9 insect cells
T1 sequence (P14061 1-328): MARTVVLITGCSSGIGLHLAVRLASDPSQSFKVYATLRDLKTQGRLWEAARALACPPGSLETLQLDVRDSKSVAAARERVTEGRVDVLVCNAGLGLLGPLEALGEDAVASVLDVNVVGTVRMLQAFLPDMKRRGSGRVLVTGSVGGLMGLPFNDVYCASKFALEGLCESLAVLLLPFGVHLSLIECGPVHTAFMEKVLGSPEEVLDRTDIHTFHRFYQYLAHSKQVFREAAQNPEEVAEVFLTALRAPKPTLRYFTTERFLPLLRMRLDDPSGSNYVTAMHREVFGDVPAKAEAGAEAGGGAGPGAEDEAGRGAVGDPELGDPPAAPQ
The test can be described thus: HSD1 inhibition, HPLC assay of [3H]-E1 to [3H]-E2 conversion. As for the experimental part:
The inhibition was determined by HPLC using recombinant human HSD1 and HSD2 proteins as described in a prior study. In short, recombinant human HSD1 and HSD2 were produced in Sf9-insect cells. […] After incubation, the reaction was stopped by addition of […] 10% trichloroacetic acid per sample. […] The ratio of [3H]-E1 converted to [3H]-E2 or vice versa determines the conversion percentage of the samples. Inhibition was measured in three concentrations (100 nM, 1, and 5 µM) in order to follow the progression of inhibition efficiencies. Inhibition efficiencies of the tested inhibitors were calculated by comparing the conversion percentages of the samples including inhibitors with those of conversion controls (without inhibitors).

Another test deals with T2, MAO-B (Homo sapiens, UniProt P27338).
T2 construct: purchased Sigma-Aldrich (St. Louis, MO)
T2 sequence (P27338 1-520): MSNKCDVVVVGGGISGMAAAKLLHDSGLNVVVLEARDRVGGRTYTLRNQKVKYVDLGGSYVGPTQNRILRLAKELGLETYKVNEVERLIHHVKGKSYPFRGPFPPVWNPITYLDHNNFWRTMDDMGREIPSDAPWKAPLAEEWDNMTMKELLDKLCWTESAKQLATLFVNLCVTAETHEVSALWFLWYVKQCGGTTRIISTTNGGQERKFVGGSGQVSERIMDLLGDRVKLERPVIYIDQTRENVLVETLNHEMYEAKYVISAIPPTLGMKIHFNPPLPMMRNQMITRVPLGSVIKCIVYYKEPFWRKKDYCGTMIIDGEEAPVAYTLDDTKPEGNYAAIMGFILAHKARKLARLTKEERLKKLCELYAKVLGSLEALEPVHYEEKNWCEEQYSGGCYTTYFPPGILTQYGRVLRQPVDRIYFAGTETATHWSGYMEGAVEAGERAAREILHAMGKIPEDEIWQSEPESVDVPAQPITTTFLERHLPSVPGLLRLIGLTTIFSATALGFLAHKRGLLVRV
The test can be described thus: MAO-B inhibition, continuous spectrophotometric assay. How it is done: The protocol of continuous spectrophotometric assay by Holt et al. was first used to determine the activity of the proteins. […] The protein was first incubated for 30 min at 37 °C in the chromogenic solution and then the substrate tyramine was introduced at 0.5 mM final plate concentration completing the assay volume. […] The assay should produce absorbance change of ∼0.35[23]. […] These protein concentrations were selected to be used to analyse the molecules 1–9. The analysis conditions followed the above-described assay protocol[23] and the activity of tested molecules was measured at 100 µM for MAO-A and at 10 µM for MAO-B. The analysis was performed as single point measurements and the signal was read by the same instrument at the expected assay maximum indicated by the activity measurements, at 30 min for MAO-A and at 2 h for MAO-B, respectively. […] The observed activity was calculated as inhibition percentage (Table 1).

Test [1] addresses T3, Aromatase (CYP19A1), human placental microsomes (Homo sapiens, UniProt P11511).
T3 construct: by using human placental microsomes; from tissue; host or cells: human placental microsomes
T3 sequence (P11511 1-503): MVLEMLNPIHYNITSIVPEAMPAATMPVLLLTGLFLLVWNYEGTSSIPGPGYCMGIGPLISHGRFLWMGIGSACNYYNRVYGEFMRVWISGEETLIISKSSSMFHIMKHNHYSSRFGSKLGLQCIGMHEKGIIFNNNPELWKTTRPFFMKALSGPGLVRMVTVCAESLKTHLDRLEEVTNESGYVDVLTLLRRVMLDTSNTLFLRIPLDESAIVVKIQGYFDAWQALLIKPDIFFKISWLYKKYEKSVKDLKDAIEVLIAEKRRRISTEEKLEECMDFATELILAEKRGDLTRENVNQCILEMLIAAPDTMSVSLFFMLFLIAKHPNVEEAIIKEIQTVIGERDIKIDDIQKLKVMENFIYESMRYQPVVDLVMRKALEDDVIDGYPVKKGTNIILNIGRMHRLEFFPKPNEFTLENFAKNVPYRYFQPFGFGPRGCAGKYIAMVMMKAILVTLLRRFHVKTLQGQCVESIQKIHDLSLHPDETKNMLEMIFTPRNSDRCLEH
The experiment in a line: Aromatase activity, [3H]-H2O release from [3H]-androstenedione. The note with it: 50 nM [3H]-androstenedione; inhibitor 60–1000 nM; read-out: Aromatase inhibition ∼ pIC50 (converted). As for the experimental part: Aromatase (CYP19A1) activity was measured as described previously[22] by using human placental microsomes and 50 nM [3H]-androstenedione as a substrate and inhibitor concentrations in the range of 60–1000 nM. Aromatase activities were measured as released [3H]-H2O in Optiphase Hisafe 2 scintillation liquid (Perkin Elmer, Waltham, MA) with a Wallac 1450 MicroBeta Trilux scintillation counter (Perkin Elmer, Waltham, MA). As a positive control for aromatase inhibition, 1 µM finrozole (generous gift from Olavi Pelkonen, University of Oulu, Finland) was used.

Test [2] concerns the target T4, heterologously expressed human CYP1A2 enzyme (Homo sapiens, UniProt P05177).
T4 construct: purchased Corning Inc., Corning, NY
T4 sequence (P05177 1-516): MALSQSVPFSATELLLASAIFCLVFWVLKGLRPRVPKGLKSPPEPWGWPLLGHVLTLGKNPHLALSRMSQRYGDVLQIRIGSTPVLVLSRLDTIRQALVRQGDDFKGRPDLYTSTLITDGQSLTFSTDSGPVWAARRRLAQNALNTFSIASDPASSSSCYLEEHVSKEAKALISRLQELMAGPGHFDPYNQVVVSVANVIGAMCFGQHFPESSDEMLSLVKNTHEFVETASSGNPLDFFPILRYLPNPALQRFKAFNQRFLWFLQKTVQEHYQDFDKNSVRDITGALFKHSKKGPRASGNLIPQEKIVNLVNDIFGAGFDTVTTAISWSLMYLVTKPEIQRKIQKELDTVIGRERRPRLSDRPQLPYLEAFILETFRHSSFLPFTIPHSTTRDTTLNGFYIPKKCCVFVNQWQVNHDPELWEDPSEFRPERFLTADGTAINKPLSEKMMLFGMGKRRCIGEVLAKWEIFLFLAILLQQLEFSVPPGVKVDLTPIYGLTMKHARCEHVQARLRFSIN
The test can be described thus: CYP1A2 inhibition. As to conditions: read-out: CYP1A2 inhibition ∼ pIC50 (converted). As for the experimental part: Inhibition of CYP1A2 activity was determined using commercial heterologously expressed human CYP1A2 enzyme (Corning Inc., Corning, NY) essentially as described previously.

The target of the next test is T5, recombinant human HSD2 (Homo sapiens, UniProt P37059).
T5 construct: made in house; host or cells: Sf9 insect cells
T5 sequence (P37059 1-387): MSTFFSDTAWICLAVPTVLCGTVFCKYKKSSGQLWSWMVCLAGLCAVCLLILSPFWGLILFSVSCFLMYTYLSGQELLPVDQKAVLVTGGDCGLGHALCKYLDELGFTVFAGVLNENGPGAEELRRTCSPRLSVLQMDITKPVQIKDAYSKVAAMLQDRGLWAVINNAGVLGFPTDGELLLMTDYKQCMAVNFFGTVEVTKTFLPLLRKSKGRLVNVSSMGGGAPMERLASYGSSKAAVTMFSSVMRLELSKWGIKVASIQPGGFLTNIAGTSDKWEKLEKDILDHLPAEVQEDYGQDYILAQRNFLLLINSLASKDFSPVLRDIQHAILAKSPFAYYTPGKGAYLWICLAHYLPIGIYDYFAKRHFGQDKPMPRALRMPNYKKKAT
The test can be described thus: HSD2 inhibition, HPLC assay of [3H]-E2 to [3H]-E1 conversion. How it is done: The inhibition was determined by HPLC using recombinant human HSD1 and HSD2 proteins as described in a prior study. In short, recombinant human HSD1 and HSD2 were produced in Sf9-insect cells. […]. After incubation, the reaction was stopped by addition of […] 10% trichloroacetic acid per sample. After incubation the substrate and the product of enzymatic conversion [3H]-E1 and [3H]-E2 were separated and quantified by HPLC (Alliance 2790, Waters, Milford, MA) connected to an online counter (Packard Flow Scintillation Analyser; Perkin Elmer Inc., Waltham, […]). The ratio of [3H]-E1 converted to [3H]-E2 or vice versa determines the conversion percentage of the samples. Inhibition was measured in three concentrations (100 nM, 1, and 5 µM) in order to follow the progression of inhibition efficiencies. Inhibition efficiencies of the tested inhibitors were calculated by comparing the conversion percentages of the samples including inhibitors with those of conversion controls (without inhibitors).

With `O=c1oc2ccccc2cc1-n1ccnc1` [Compound 10, 3–(1H-imidazol-1-yl)-2H-chromen-2-one], the “HSD1 inhibition (in words)” value at recombinant human HSD1 is reported as “blocking neither HSD1 nor MAO-B”. Moreover, the inhibition (as a rule, the change of the read-out against control, counted positive when it falls) at 0.1 µM on recombinant human HSD1 (100 nM, average of two measurements, except for compounds 8 and 9, read-out: HSD1 inhibition at 100 nM) amounted to 1%. In addition, at recombinant human HSD1 (1 µM, average of three measurements, except for compounds 8 and 9, read-out: HSD1 inhibition at 1 µM), the inhibition at 1 µM was found to be 1%. The IC50 is > 5010 nM on recombinant human HSD1 (estimated from three measurements at 1 µM, average ± standard error, read-out: HSD1 inhibition ∼ pIC50 (converted)); 77.6 nM in test [1]; 115 nM in test [2]. Moreover, the “MAO-B inhibition (in words)” value on MAO-B is listed as “blocking neither HSD1 nor MAO-B”. For the same compound, the inhibition at 10 µM on MAO-B (10 µM, single point, read at 2 h, read-out: MAO-B inhibition at 10 µM) worked out at 11%.

As for `O=c1c(Oc2ccc(Cl)cc2)coc2cc(O)cc(O)c12` [HM2001, 3–(4-Chlorophenoxy)-5,7-dihydroxychromen-4-one, reference compound], the inhibition at 0.1 µM on recombinant human HSD2 (100 nM, control) was found to be 62.3%. For the same compound, the inhibition at 1 µM on recombinant human HSD2 (read-out: HSD2 inhibition at 1 µM) is 100%.
